Laboratory results reported in patent publication US20250230193A1, “CYCLIC COMPOUND HAVING SELECTIVE KRAS INHIBITORY EFFECT ON HRAS AND NRAS” (CHUGAI SEIYAKU KABUSHIKI KAISHA, priority 2022, published 2025).
Where a SMILES comes first, the peptide text is derived from it. Bridges are numbered along the chain shown (N, C = ends). [ ]: non-standard residue; d: D form. The star is where a group is joined. hPhe(3-Cl-4-CF3) = N[C@@H](CCc1ccc(C(F)(F)F)c(Cl)c1)C(=O)O; NPrPhe(4-CF3) = CCCN[C@@H](Cc1ccc(C(F)(F)F)cc1)C(=O)O; NMeGly(cPent) = CN[C@H](C(=O)O)C1CCCC1; Pro(4,4-F2) = O=C(O)[C@@H]1CC(F)(F)CN1; NMeGly(cBu) = CN[C@H](C(=O)O)C1CCC1; NMeD = CN[C@@H](CC(=O)O)C(=O)O; Morpholide = C1CN(*)CCO1; NMeA = CN[C@@H](C)C(=O)O; Ac5c = NC1(C(=O)O)CCCC1; Aze = O=C(O)[C@@H]1CCN1; Sar = CNCC(=O)O

Legend:
[1] = target: GDP-bound HRAS wild-type protein (Homo sapiens, UniProt P01112); assay: Binding to HRAS by surface plasmon resonance (SPR), Single Cycle Kinetics; settings: for HRAS/KRAS (ratio of KD value with respect to HRAS to KD value with respect to KRAS): GDP-bound HRAS wild-type vs GDP-bound KRAS wild-type
[2] = target: GDP-bound NRAS wild-type protein (Homo sapiens, UniProt P01111); assay: Binding to NRAS by surface plasmon resonance (SPR), Single Cycle Kinetics; settings: for NRAS/KRAS (ratio of KD value with respect to NRAS to KD value with respect to KRAS): GDP-bound NRAS wild-type vs GDP-bound KRAS wild-type
Sequence of GDP-bound NRAS wild-type protein (P01111 whole entry): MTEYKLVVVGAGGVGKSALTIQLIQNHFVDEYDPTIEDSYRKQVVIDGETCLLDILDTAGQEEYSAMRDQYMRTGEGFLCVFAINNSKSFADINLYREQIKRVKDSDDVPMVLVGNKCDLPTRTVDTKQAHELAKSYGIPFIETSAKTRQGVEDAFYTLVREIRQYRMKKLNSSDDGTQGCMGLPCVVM

Sequence of GDP-bound HRAS wild-type protein (P01112 whole entry): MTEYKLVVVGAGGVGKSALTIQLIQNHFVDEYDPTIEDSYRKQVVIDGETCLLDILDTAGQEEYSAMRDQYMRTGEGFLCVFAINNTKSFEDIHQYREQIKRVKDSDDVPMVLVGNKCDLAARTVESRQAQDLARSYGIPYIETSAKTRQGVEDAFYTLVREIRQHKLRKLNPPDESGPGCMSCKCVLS

In the case of `CCO[C@H](C)[C@@H]1NC(=O)[C@H](CC(C)C)N(C)C(=O)C[C@@H](C(=O)N(C)CC)N(C)C(=O)[C@H](C2CCCC2)N(C)C(=O)C2(CC(C)(C)C2)NC(=O)[C@@H]2C[C@H](C)CN2C(=O)[C@H](CCc2ccc(C(F)(F)F)c(OC)c2)NC(=O)CN(C)C(=O)[C@H](Cc2ccc(C)cc2)N2CC/C=C\C[C@@H](C2=O)N(C)C(=O)[C@@H]2CCCN2C1=O` [PP2419], the “HRAS/KRAS (ratio of KD value with respect to HRAS to KD value with respect to KRAS)” value ([1]; SPR) is reported as “A (a compound having 10 or more and less than 20 is denoted as A)” and the “NRAS/KRAS (ratio of KD value with respect to NRAS to KD value with respect to KRAS)” value ([2]; SPR) is reported as “A (a compound having 10 or more and less than 20 is denoted as A)”.
`CCO[C@@H]1C[C@H]2C(=O)NC3(CC(C)(C)C3)C(=O)N(C)[C@@H](C(CC)CC)C(=O)N(C)[C@H](C(=O)N(C)C)CC(=O)N(C)[C@H]3CCCCCCc4ccc(cc4)C[C@@H](C(=O)N(C)CC(=O)N[C@@H](CCc4ccc(C(F)(F)F)c(OC)c4)C(=O)N2C1)N1CC/C=C\C[C@@H](C1=O)N(C)C(=O)CN(C)C(=O)[C@H]([C@@H](C)CC)NC3=O` [PP3032] was tested, and the “HRAS/KRAS (ratio of KD value with respect to GDP-bound HRAS wild-type protein to KD value with respect to KRAS)” value ([1]; KD ratio HRAS/KRAS, SPR, GDP-bound wild-type proteins) was “A (a compound having 10 or more and less than 20 is denoted as A)” and the “NRAS/KRAS (ratio of KD value with respect to GDP-bound NRAS wild-type protein to KD value with respect to KRAS)” value ([2]; KD ratio NRAS/KRAS, SPR, GDP-bound wild-type proteins) was “AA (a compound having 20 or more is denoted as AA)”.
For `CCCN1C(=O)[C@@H]2CCN2C(=O)[C@H](C)N(C)C(=O)[C@H]([C@@H](C)CC)NC(=O)[C@H](C2CCC2)N(C)C(=O)C[C@@H](C(=O)N2CCOCC2)N(C)C(=O)[C@H](C2CCCC2)N(C)C(=O)C2(CCCC2)NC(=O)[C@@H]2CC(F)(F)CN2C(=O)[C@H](CCc2ccc(C(F)(F)F)c(Cl)c2)NC(=O)CN(C)C(=O)[C@@H]1Cc1ccc(C(F)(F)F)cc1` [PP0204] ([NMeGly(cBu)]I[NMeA][Aze][NPrPhe(4-CF3)][Sar][hPhe(3-Cl-4-CF3)][Pro(4,4-F2)][Ac5c][NMeGly(cPent)][NMeD]-Morpholide; lactam N-11), the “HRAS/KRAS (ratio of KD for GDP-bound HRAS wild-type to KD for KRAS)” value ([1]; KD ratio HRAS/KRAS, SPR) was “C (A compound having a KD ratio of 0.1 or more and less than 3 is denoted as C)” and the “NRAS/KRAS (ratio of KD for GDP-bound NRAS wild-type to KD for KRAS)” value ([2]; KD ratio NRAS/KRAS, SPR) was “C (A compound having a KD ratio of 0.1 or more and less than 3 is denoted as C)”.
`CC[C@@H]1C[C@H]2C(=O)NC3(CCCC3)C(=O)N(C)[C@@H](C3CCCC3)C(=O)N(C)[C@H](C(=O)N(C)C)CC(=O)N(C)[C@@H](CC(C)C)C(=O)N[C@@H]([C@@H](C)CC)C(=O)N(C)CC(=O)N(C)[C@H]3C/C=C\CCN(C3=O)[C@@H](Cc3ccc(C)cc3)C(=O)N(C)CC(=O)N[C@@H](CCc3cc(F)c(C(F)(F)F)c(F)c3)C(=O)N2C1` [PP2191] was tested, and the “HRAS/KRAS (ratio of KD value with respect to HRAS to KD value with respect to KRAS)” value ([1]; SPR) was “B (a compound having 3 or more and less than 10 is denoted as B)” and the “NRAS/KRAS (ratio of KD value with respect to NRAS to KD value with respect to KRAS)” value ([2]; SPR) was “A (a compound having 10 or more and less than 20 is denoted as A)”.
In the case of `CCC(CC)[C@H]1C(=O)N(C)[C@H](C(=O)N(C)C)CC(=O)N(C)[C@@H](COC)C(=O)N[C@@H]([C@@H](C)CC)C(=O)N(C)CC(=O)N(C)[C@H]2C/C=C\CCN(C2=O)[C@@H](Cc2ccc(C)cc2)C(=O)N(C)CC(=O)N[C@@H](CCc2cc(F)c(C(F)(F)F)c(F)c2)C(=O)N2CC3(CC3)C[C@H]2C(=O)NC2(CC(C)(C)C2)C(=O)N1C` [PP2963], the “HRAS/KRAS (ratio of KD value with respect to GDP-bound HRAS wild-type protein to KD value with respect to KRAS)” value ([1]; KD ratio HRAS/KRAS, class symbols) is reported as “A (a compound having 10 or more and less than 20 is denoted as A)” and the “NRAS/KRAS (ratio of KD value with respect to GDP-bound NRAS wild-type protein to KD value with respect to KRAS)” value ([2]; KD ratio NRAS/KRAS, class symbols) is reported as “AA (a compound having 20 or more is denoted as AA)”.
With `CCO[C@@H]1C[C@H]2C(=O)NC3(CCC3)C(=O)N(C)[C@@H](C3CCCC3)C(=O)N(C)[C@H](C(=O)N(C)C)CC(=O)N(C)[C@@H](CC(C)C)C(=O)N[C@@H]([C@@H](C)CC)C(=O)N(C)CC(=O)N(C)[C@H]3C[C@@H](C)CCN(C3=O)[C@@H](Cc3ccc(C(F)(F)F)cc3)C(=O)N(C)CC(=O)N[C@@H](CCc3cc(F)c(C(F)(F)F)c(F)c3)C(=O)N2C1` [PP1018] the “HRAS/KRAS (ratio of KD value with respect to HRAS to KD value with respect to KRAS)” value ([1]; KD ratio, SPR) was “B (a compound having 3 or more and less than 10 is denoted as B)” and the “NRAS/KRAS (ratio of KD value with respect to NRAS to KD value with respect to KRAS)” value ([2]; KD ratio, SPR) was “C (A compound having a KD ratio of 0.1 or more and less than 3 is denoted as C)”.
